Laboratory results reported in ChEMBL document CHEMBL5291721, “A preclinical secondary pharmacology resource illuminates target-adverse drug reaction associations of marketed drugs” (Nat Commun, 2023).

Tests used:
[1] = target: Kappa-type opioid receptor (Homo sapiens, UniProt P41145)
[2] = target: T1, Muscarinic acetylcholine receptor M2 (Homo sapiens, UniProt P08172); format: functional, cell-based
T1 sequence (P08172 whole entry): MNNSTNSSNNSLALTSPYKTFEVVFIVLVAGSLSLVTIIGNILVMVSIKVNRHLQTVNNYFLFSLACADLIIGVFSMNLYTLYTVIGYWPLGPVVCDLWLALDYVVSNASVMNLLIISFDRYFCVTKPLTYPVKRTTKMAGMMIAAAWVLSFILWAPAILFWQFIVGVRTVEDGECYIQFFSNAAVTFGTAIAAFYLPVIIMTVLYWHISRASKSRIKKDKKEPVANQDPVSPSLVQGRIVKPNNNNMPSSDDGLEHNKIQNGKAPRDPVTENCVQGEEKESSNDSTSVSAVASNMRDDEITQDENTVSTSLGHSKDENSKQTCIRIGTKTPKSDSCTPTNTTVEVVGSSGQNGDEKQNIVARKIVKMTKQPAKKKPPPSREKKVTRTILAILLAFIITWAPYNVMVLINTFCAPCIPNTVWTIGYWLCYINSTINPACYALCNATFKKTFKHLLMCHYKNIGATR

[3] = target: Voltage-dependent L-type calcium channel subunit alpha-1C (Rattus norvegicus, UniProt P22002); format: functional
Glucocorticoid receptor = target: T2, Glucocorticoid receptor (Homo sapiens, UniProt P04150)
T2 sequence (P04150 whole entry): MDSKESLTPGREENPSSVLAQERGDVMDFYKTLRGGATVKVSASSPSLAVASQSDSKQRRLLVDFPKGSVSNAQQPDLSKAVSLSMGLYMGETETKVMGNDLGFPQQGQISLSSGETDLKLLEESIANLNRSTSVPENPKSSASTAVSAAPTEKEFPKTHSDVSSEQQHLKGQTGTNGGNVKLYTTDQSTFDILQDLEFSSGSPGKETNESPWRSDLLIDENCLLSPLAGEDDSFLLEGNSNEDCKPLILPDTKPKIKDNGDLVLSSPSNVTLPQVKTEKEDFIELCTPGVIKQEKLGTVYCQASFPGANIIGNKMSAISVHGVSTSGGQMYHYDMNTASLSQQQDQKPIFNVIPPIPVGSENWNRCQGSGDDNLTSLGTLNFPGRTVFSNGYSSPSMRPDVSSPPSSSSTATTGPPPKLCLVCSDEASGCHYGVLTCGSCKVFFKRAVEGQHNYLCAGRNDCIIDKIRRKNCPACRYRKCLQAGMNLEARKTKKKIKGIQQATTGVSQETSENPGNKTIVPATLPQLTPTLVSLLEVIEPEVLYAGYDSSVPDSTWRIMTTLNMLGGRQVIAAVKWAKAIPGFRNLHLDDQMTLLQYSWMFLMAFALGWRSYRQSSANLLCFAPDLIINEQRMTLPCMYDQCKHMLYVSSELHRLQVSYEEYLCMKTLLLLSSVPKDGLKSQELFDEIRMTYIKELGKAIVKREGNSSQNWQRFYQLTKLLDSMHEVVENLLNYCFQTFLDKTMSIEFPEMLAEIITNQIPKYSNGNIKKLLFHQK

Progesterone receptor = target: T3, Progesterone receptor (Homo sapiens, UniProt P06401); format: functional
T3 sequence (P06401 whole entry): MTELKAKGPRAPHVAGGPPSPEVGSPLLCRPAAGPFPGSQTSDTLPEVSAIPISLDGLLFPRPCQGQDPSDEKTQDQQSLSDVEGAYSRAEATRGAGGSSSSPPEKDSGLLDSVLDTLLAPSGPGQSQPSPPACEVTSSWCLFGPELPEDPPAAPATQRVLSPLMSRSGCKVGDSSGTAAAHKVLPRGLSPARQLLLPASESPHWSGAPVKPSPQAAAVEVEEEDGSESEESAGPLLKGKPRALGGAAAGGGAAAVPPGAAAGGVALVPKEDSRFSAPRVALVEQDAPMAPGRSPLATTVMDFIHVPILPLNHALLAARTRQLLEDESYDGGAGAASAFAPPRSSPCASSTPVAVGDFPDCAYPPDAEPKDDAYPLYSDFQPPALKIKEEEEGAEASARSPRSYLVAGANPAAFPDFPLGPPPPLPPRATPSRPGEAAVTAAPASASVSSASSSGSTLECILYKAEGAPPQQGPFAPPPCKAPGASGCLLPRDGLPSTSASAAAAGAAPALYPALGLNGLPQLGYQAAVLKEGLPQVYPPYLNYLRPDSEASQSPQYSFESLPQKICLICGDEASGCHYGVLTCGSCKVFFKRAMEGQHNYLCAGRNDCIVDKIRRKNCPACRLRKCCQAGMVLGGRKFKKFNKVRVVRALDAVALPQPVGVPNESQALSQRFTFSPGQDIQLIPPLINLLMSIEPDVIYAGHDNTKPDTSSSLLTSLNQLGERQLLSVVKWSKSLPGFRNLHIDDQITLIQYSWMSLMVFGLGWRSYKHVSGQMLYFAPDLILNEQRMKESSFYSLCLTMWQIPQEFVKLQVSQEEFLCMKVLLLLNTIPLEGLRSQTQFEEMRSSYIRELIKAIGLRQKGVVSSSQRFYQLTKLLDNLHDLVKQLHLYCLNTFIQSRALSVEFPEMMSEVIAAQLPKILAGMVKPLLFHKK

[4] = target: Sodium-dependent noradrenaline transporter (Homo sapiens, UniProt P23975)
[5] = target: T4, Alpha-2B adrenergic receptor (Homo sapiens, UniProt P18089)
T4 sequence (P18089 whole entry): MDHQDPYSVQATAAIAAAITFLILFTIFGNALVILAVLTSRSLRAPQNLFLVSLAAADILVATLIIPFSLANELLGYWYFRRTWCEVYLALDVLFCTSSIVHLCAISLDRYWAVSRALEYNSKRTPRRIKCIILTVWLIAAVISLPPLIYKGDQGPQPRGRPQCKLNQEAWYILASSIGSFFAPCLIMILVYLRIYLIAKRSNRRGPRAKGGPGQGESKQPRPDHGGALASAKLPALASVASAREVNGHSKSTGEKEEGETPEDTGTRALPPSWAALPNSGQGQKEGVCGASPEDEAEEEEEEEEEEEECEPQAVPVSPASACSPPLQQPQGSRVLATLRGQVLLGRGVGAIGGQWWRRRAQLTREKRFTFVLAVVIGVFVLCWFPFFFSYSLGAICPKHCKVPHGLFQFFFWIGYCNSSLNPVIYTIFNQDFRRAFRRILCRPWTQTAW
Note: assay procedure not described here.

Chain of Sodium-dependent noradrenaline transporter (P23975 whole entry): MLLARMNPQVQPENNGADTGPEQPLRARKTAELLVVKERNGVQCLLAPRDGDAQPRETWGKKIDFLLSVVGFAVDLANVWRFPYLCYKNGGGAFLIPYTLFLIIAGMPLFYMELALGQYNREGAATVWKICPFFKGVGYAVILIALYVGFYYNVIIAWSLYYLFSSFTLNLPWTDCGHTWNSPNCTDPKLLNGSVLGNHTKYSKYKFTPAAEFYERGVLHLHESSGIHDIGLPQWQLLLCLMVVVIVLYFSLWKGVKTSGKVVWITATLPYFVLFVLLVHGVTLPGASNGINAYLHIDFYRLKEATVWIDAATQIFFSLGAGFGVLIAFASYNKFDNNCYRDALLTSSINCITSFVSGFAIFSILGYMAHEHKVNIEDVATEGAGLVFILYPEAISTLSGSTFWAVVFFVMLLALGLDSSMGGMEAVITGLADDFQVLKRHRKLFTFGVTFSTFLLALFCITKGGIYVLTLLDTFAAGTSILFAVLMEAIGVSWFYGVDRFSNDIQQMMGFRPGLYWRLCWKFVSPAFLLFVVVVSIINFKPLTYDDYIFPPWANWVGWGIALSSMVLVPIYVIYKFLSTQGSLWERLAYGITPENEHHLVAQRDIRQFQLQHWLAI
Chain of Voltage-dependent L-type calcium channel subunit alpha-1C (P22002 whole entry): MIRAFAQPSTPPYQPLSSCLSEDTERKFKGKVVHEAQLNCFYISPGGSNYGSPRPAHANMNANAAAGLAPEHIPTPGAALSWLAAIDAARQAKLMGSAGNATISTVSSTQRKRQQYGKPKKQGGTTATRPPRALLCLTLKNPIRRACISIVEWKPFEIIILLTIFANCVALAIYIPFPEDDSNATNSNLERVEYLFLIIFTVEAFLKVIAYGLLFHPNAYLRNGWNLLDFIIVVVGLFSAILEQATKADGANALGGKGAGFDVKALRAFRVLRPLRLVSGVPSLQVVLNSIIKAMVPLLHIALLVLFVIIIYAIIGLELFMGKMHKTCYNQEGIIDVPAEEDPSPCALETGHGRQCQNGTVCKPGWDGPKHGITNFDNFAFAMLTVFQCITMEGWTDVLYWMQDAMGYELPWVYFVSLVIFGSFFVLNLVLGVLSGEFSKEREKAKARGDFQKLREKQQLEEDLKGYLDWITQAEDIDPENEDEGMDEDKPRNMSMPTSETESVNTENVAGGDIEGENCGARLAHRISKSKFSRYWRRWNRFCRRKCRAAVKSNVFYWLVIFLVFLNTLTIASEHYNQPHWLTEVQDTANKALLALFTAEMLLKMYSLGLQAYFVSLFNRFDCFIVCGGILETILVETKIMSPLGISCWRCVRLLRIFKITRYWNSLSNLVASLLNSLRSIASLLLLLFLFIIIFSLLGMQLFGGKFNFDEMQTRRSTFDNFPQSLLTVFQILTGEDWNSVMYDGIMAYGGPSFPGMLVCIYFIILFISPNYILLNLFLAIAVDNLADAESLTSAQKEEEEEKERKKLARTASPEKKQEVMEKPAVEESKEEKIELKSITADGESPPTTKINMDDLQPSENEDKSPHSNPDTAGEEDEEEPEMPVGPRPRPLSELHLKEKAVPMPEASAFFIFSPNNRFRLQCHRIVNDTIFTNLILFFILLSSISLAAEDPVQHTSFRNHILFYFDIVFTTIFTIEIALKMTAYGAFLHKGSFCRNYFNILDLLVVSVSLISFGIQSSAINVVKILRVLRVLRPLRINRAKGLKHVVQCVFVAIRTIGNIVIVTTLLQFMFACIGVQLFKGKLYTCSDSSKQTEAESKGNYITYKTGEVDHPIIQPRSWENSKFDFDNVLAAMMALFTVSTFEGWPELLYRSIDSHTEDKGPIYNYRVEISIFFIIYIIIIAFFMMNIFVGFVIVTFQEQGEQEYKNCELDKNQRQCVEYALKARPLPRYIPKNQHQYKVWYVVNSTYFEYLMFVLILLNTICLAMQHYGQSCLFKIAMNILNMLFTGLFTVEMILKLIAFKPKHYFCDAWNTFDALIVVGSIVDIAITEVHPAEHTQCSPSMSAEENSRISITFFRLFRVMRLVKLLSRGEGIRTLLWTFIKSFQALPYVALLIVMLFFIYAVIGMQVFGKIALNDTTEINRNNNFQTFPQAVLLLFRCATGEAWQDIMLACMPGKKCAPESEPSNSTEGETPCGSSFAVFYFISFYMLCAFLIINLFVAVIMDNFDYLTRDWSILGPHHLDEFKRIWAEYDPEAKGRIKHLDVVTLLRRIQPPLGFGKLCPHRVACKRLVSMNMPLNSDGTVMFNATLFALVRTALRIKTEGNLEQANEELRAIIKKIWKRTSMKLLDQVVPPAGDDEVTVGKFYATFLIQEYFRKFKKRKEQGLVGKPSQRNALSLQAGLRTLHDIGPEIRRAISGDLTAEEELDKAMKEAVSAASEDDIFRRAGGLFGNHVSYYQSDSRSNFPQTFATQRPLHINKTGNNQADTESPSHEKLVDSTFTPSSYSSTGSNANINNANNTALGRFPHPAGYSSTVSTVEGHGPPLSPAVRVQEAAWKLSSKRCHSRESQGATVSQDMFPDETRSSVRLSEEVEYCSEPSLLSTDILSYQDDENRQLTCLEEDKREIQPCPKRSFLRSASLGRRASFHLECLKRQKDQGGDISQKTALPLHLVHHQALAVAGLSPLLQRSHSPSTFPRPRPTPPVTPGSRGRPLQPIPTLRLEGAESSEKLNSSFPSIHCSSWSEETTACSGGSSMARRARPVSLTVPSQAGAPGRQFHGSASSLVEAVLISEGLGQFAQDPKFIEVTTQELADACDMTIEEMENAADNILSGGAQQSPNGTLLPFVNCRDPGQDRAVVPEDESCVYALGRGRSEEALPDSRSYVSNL
Chain of Kappa-type opioid receptor (P41145 whole entry): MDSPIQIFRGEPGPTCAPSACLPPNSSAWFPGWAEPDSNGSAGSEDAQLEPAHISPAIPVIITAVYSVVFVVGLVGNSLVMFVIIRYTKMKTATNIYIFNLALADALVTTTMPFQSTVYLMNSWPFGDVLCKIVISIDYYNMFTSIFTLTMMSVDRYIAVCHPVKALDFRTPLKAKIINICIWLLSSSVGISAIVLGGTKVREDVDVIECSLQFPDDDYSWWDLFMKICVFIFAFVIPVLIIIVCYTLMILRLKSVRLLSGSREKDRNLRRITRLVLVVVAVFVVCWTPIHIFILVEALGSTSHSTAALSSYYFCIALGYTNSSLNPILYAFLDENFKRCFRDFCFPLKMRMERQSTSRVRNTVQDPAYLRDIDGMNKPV

| SMILES | AC50 [1] | AC50 [2] | AC50 [3] | AC50 (Glucocorticoid receptor) | AC50 (Progesterone receptor) | AC50 [4] | AC50 [5] |
| --- | --- | --- | --- | --- | --- | --- | --- |
| CN1C(=O)OC(C)(C)C1=O [TRIMETHADIONE] | > 10 µM | > 10 µM | > 10 µM | > 10 µM | > 10 µM | > 10 µM | – |
| O=C(O)/C=C/c1ccc(Cn2ccnc2)cc1 [OZAGREL] | > 30 µM | > 30 µM | > 30 µM | > 30 µM | > 30 µM | – | > 30 µM |
| Cc1ccc(-n2nccn2)c(C(=O)N2CCN(c3nc4cc(Cl)ccc4o3)CC[C@H]2C)c1 [SUVOREXANT] | > 30 µM | > 30 µM | – | > 30 µM | > 30 µM | > 30 µM | 26 µM |
| CN1CCC(=C2c3ccccc3CCc3sccc32)CC1 [PIZOTYLINE] | 1.57 µM | > 30 µM | 20.1 µM | > 30 µM | – | 1.1 µM | 0.51 µM |
| CC=CC(=O)N(CC)c1ccccc1C | > 10 µM | > 10 µM | > 10 µM | > 10 µM | > 10 µM | > 10 µM | – |
| O=C(O)C[C@H](O)C[C@H](O)/C=C/c1c(C2CC2)nc2ccccc2c1-c1ccc(F)cc1 [PITAVASTATIN] | > 10 µM | > 30 µM | > 10 µM | > 10 µM | > 30 µM | > 30 µM | – |
| CCOC(=O)OC(C)OC1=C(C(=O)Nc2ccccn2)N(C)S(=O)(=O)c2ccccc21 (stereo not given) [AMPIROXICAM] | > 30 µM | > 30 µM | > 30 µM | > 30 µM | > 30 µM | > 30 µM | – |
| NCC[C@H](O)C(=O)N[C@@H]1C[C@H](N)[C@@H](O[C@H]2O[C@H](CN)[C@@H](O)[C@H](O)[C@H]2O)[C@H](O)[C@H]1O[C@H]1O[C@H](CO)[C@@H](O)[C@H](N)[C@H]1O [AMIKACIN] | > 10 µM | > 10 µM | > 10 µM | > 10 µM | > 10 µM | > 10 µM | – |
| COC(=O)C1=C(C)NC(C)=C(C(=O)OC2CCCN(Cc3ccccc3)C2)C1c1cccc([N+](=O)[O-])c1 (stereo not given) [BENIDIPINE] | 1.5 µM | > 30 µM | 0.014 µM | > 30 µM | – | 13 µM | > 30 µM |
| Clc1ccc(CCCOCCCN2CCCCC2)cc1 [PITOLISANT] | > 30 µM | > 30 µM | – | > 30 µM | > 30 µM | 13 µM | > 30 µM |
| CCCCCCOc1ccccc1C(N)=O [EXALAMIDE] | 9.3 µM | – | > 30 µM | > 30 µM | > 30 µM | > 30 µM | > 30 µM |
| CC(C)OC(=O)CCC/C=C\C[C@@H]1[C@@H](CC[C@@H](O)CCc2ccccc2)[C@H](O)C[C@@H]1O [LATANOPROST] | > 30 µM | > 30 µM | – | > 30 µM | > 30 µM | > 30 µM | > 30 µM |
| CCc1c(Cl)c(O)c(Cl)c(O)c1C(=O)O[C@H]1[C@H](O)[C@H](OC)[C@H](OC/C2=C\C=C\C[C@H](O)/C(C)=C/[C@H](CC)[C@@H](O[C@@H]3OC(C)(C)[C@@H](OC(=O)C(C)C)[C@H](O)[C@@H]3O)/C(C)=C/C(C)=C/C[C@@H]([C@@H](C)O)OC2=O)O[C@@H]1C [FIDAXOMICIN] | > 10 µM | – | > 10 µM | > 30 µM | > 30 µM | > 30 µM | > 10 µM |
| CCCCc1ncc(/C=C(\Cc2cccs2)C(=O)O)n1Cc1ccc(C(=O)O)cc1 [EPROSARTAN] | > 10 µM | > 10 µM | > 10 µM | > 30 µM | – | > 30 µM | > 10 µM |
| COc1ccc(CCN(C)CCCC(C#N)(c2cc(OC)c(OC)c(OC)c2)C(C)C)cc1OC (stereo not given) [GALLOPAMIL] | 2.5 µM | > 30 µM | – | > 30 µM | > 30 µM | > 30 µM | > 30 µM |
| COc1ccc2c3c1O[C@H]1C(=O)CC[C@@]4(O)[C@@H](C2)N(C)CC[C@]314 [OXYCODONE] | – | > 30 µM | > 30 µM | > 30 µM | > 30 µM | > 30 µM | > 30 µM |
| NCC(=O)CCC(=O)O [AMINOLEVULINIC ACID] | > 30 µM | > 30 µM | – | > 30 µM | > 30 µM | – | > 30 µM |
| CC(C)Cn1cnc2c(N)nc3ccccc3c21 [IMIQUIMOD] | > 10 µM | > 10 µM | > 10 µM | > 10 µM | > 10 µM | > 30 µM | – |
| CCCN(CCC)C(=O)C(CCC(=O)O)NC(=O)c1ccccc1 (stereo not given) [PROGLUMIDE] | > 10 µM | > 10 µM | > 10 µM | > 30 µM | > 30 µM | > 30 µM | – |
| CC(C)(C)c1cc(C(C)(C)C)c(NC(=O)c2c[nH]c3ccccc3c2=O)cc1O [IVACAFTOR] | > 10 µM | – | > 10 µM | > 30 µM | – | 6.5 µM | > 10 µM |
| O=C(NCCNCC(O)COc1ccc(O)cc1)N1CCOCC1 (stereo not given) [XAMOTEROL] | > 30 µM | > 30 µM | – | > 30 µM | > 30 µM | > 30 µM | > 30 µM |
| C[C@]12CC[C@H]3[C@@H](CCC4=CC(=O)CC[C@@]43C)[C@@H]1CC[C@@H]2O [TESTOSTERONE] | > 10 µM | > 10 µM | > 10 µM | 0.246 µM | 0.092 µM | > 10 µM | – |
| CCC1(CC)C(=O)NCC(C)C1=O (stereo not given) [METHYPRYLON] | > 30 µM | > 30 µM | – | > 30 µM | > 30 µM | > 30 µM | > 30 µM |
| C#C[C@]1(O)CC[C@H]2[C@@H]3CCC4=Cc5oncc5C[C@]4(C)[C@H]3CC[C@@]21C [DANAZOL] | > 10 µM | – | > 10 µM | 0.111 µM | 0.019 µM | – | – |
